Results taken from patent publication US5750648A, “Retroviral protease inhibitors and combinations thereof” (G.D. Searle & Co., priority 1994, dated 1998).

Assays:
[1] = molecular target: HIV protease (Human immunodeficiency virus type 1 group M subtype B, UniProt P04585); assay: HIV protease enzyme assay (fluorescent substrate 2-aminobenzoyl-Ile-Nle-Phe(p-NO2)-Gln-ArgNH2); assay type: biochemical; details: concentration at which the inhibitor reduces enzyme activity by 50%; enzyme about 12.3 nanomolar, substrate about 80 μM, pH 6.4
From the text: The compounds of the present invention are advantageously effective HIV protease inhibitors. Utilizing an enzyme assay as described below, the compounds set forth in the examples herein disclosed inhibited the HIV enzyme. The preferred compounds of the present invention and their calculated IC50 (the concentration at which the inhibitor compound reduces enzyme activity by 50%) values are shown in Table 2.
The enzyme method is as follows. The substrate is 2-aminobenzoyl-Ile-Nle-Phe(p-NO2)-Gln-ArgNH2. The positive control is MVT-101 (Miller, M. et al, Science, 246, 1149 (1989)). The assay buffer is 20 mM sodium phosphate, pH 6.4, 20% glycerol, 1 mM EDTA, 1 mM DTT and 0.1% CHAPS. The substrate is dissolved in DMSO, then diluted 10 fold in assay buffer. Final substrate concentration in the assay is about 80 μM. HIV protease is diluted in the assay buffer to a final enzyme concentration of about 12.3 nanomolar, based on a molecular weight of 10,780.
The final concentration of DMSO is about 14% and the final concentration of glycerol is about 18%. The test compound is dissolved in DMSO and diluted in DMSO to ten times (10×) the test concentration. Ten microliters (10 μL) of the enzyme preparation is added, the materials mixed and then the mixture is incubated at ambient temperature for 15 minutes. The enzyme reaction is initiated by the addition of 40 μL of substrate. The increase in fluorescence is monitored at 4 time points (0, 8, 16 and 24 minutes) at ambient temperature. Each assay is carried out in duplicate wells.

[2] = Identification of metabolite in blood of male rats after oral administration (LC-MS); assay type: in vivo, rat; details: male rats (n=5), in 0.5% methylcellulose and 0.1% polysorbate 80, blood at 0.25-4 hours
Method: Butaneamide, 2-[(N,N-dimethylaminoacetyl)amino]-N-[3-[[[(1,1-dimethylethyl)amino]carbonyl](3-methylbutyl)amino]-2-hydroxy-1-(phenylmethyl)propyl]-3,3-dimethyl-, [1S-[1R*(R*), 2S*]]-, as prepared in Example 1 herein, is administered to male rats (n=5) orally in water containing 0.5% methylcellulose and 0.1% polysorbate 80 in a total volume of 5 to 7 mL per kilogram. Blood samples are collected at 0.25, 0.50, 1, 2 and 4 hours. The samples for each time-point are pooled and extracted onto a 100 mg C18 solid phase extraction column (SPEC) after prior treatment with methanol to denature plasma proteins. The extract is purified by washing the SPEC with water and collected after the addition of 1% formic acid in methanol to the SPEC. Concentration of the extract is achieved by evaporation and resolubilization in a small volume of water:acetonitrile (3:1, v/v). The resolubilized extract is filtered through a 0.2μ filter and injected onto a liquid chromatograph coupled to a mass spectrometer, using a VG Trio 2 Mass Spectrometer, by means of a thermospray interface. The chromatographic separation is produced by use of a 10 cm (2×5 cm) YMC Basic column with a mobile phase of water:acetonitrile:pyridine:formic acid (545:440:10:5, by volume).

[3] = system: CEM cells; assay type: cell-based; parameters: unit not given beside the values
Method: The HIV inhibition assay method of acutely infected cells is an automated tetrazolium based calorimetric assay essentially that reported by Pauwles et al, J. Virol. Methods 20, 309-321 (1988). Assays were performed in 96-well tissue culture plates. CEM cells, a CD4+ cell line, were grown in RPMI-1640 medium (Gibco) supplemented with a 10% fetal calf serum and were then treated with polybrene (2 μg/ml). An 80 μl volume of medium containing 1×10^4 cells was dispensed into each well of the tissue culture plate. To each well was added a 100 μl volume of test compound dissolved in tissue culture medium (or medium without test compound as a control) to achieve the desired final concentration and the cells were incubated at 37° C. for 1 hour. A frozen culture of HIV-1 was diluted in culture medium to a concentration of 5×104 TCID50 per ml (TCID50=the dose of virus that infects 50% of cells in tissue culture), and a 20 μL volume of the virus sample (containing 1000 TCID50 of virus) was added to wells containing test compound and to wells containing only medium (infected control cells). Several wells received culture medium without virus (uninfected control cells). Likewise, the intrinsic toxicity of the test compound was determined by adding medium without virus to several wells containing test compound. In summary, the tissue culture plates contained the following experiments: In experiments 2 and 4 the final concentrations of test compounds were 1, 10, 100 and 500 μg/ml. Either azidothymidine (AZT) or dideoxyinosine (ddI) was included as a positive drug control. […] DMSO was added to all control wells at an appropriate concentration. Following the addition of virus, cells were incubated at 37° C. in a humidified, 5% CO2 atmosphere for 7 days. Test compounds could be added on days 0, 2 and 5 if desired. […] The absorbance at 590 nm was determined for each sample using a Molecular Devices microplate reader. Absorbance values for each set of wells is compared to assess viral control infection, uninfected control cell response as well as test compound by cytotoxicity and antiviral efficacy.

[4] = system: HIV-1 in CEM cells; assay: CEM cell assay, HIV inhibition in acutely infected cells (MTT); assay type: cell-based; details: Human immunodeficiency virus 1, CCRF-CEM, 168 h; HIV-1 infected CEM cells, 7 days
Method: The effectiveness of selected compounds of the present invention were determined in the above-described enzyme assay and in a CEM cell assay. The HIV inhibition assay method of acutely infected cells is an automated tetrazolium based calorimetric assay essentially that reported by Pauwles et al, J. Virol. Methods 20, 309-321 (1988). Assays were performed in 96-well tissue culture plates. CEM cells, a CD4+ cell line, were grown in RPMI-1640 medium (Gibco) supplemented with a 10% fetal calf serum and were then treated with polybrene (2 μg/ml). An 80 μl volume of medium containing 1×10^4 cells was dispensed into each well of the tissue culture plate. To each well was added a 100 μl volume of test compound dissolved in tissue culture medium (or medium without test compound as a control) to achieve the desired final concentration and the cells were incubated at 37° C. for 1 hour. A frozen culture of HIV-1 was diluted in culture medium to a concentration of […] (TCID50=the dose of virus that infects 50% of cells in tissue culture), and a 20 μL volume of the virus sample (containing 1000 TCID50 of virus) was added to wells containing test compound and to wells containing only medium (infected control cells). Several wells received culture medium without virus (uninfected control cells). Likewise, the intrinsic toxicity of the test compound was determined by adding medium without virus to several wells containing test compound. In summary, the tissue culture plates contained the following experiments: In experiments 2 and 4 the final concentrations of test compounds were 1, 10, 100 and 500 μg/ml. Either azidothymidine (AZT) or dideoxyinosine (ddI) was included as a positive drug control. […] DMSO was added to all control wells at an appropriate concentration. Following the addition of virus, cells were incubated at 37° C. in a humidified, 5% CO2 atmosphere for 7 days. Test compounds could be added on days 0, 2 and 5 if desired. On day 7, post-infection, the cells in each well were resuspended and a 100 μl sample of each cell suspension was removed for assay. A 20 μL volume of a 5 mg/ml solution of 3-(4,5-dimethylthiazol-2-yl)-2,5-diphenyltetrazolium bromide (MTT) was added to each 100 μL cell suspension, and the cells were incubated for 4 hours at […] in a 5% CO2 environment. […] To each sample was added 100 μl of 10% sodium dodecylsulfate in 0.01N HCl to lyse the cells, and samples were incubated overnight. The absorbance at 590 nm was determined for each sample using a Molecular Devices microplate reader. Absorbance values for each set of wells is compared to assess viral control infection, uninfected control cell response as well as test compound by cytotoxicity and antiviral efficacy.

SMILES | IC50 [1] [nM] | metabolite found in blood extract compared with synthesized metabolite standard [2] | TD50 [3] | EC50 [4] [nM]
CC(C)CCN(C[C@@H](O)[C@H](Cc1ccccc1)NC(=O)[C@@H](NC(=O)CN(C)C)C(C)(C)C)C(=O)NC(C)(C)C [Example 1, Butaneamide, 2-[(N,N-dimethylaminoacetyl)amino]-N-[3-[[[(1,1-dimethylethyl)amino]carbonyl](3-methylbutyl)amino]-2-hydroxy-1-(phenylmethyl)propyl]-3,3-dimethyl-,[1S-[1R*(R*), 2S*]]-] | 10 | corresponding spectra and chromatogram from a standard of the synthesized metabolite can be favorably compared | 45,000 | 58
CNCC(=O)N[C@H](C(=O)N[C@@H](Cc1ccccc1)[C@H](O)CN(CCC(C)C)C(=O)NC(C)(C)C)C(C)(C)C [Example 2, (2R, 3S)-3(N-methylaminoacetyl-L-tert-butylglycinyl) amino-2-hydroxy-4-phenyl-1-[N-(3-methylbutyl)-N-[(1,1-dimethylethyl)amino]carbonyl]aminobutane] | 6 | – | 45,000 | 22
CC[C@H](C)[C@H](NC(=O)CNC)C(=O)N[C@@H](Cc1ccccc1)[C@H](O)CN(CCC(C)C)C(=O)NC(C)(C)C [Example 4, (2R,3S)-3-(N-methylaminoacetyl-L-isoleucinyl) amido-1-[N-isoamyl-N-(tert-butylcarbamoyl)]amino-4-phenyl-2-butanol] | 13 | – | 55,000 | 91
